Laboratory results published in patent US9790188B2, “Benzimidazole derivatives and uses thereof” (Whitehead Institute for Biomedical Research, priority 2013, dated 2017).
Entries after “also recorded” stand apart in the source; their conditions may differ.

Tests used:
[1] = molecular target: T1, Nedd4 (Homo sapiens, UniProt P46934); settings: pers. comm.; cited from earlier work
T1 sequence (P46934 1-1319): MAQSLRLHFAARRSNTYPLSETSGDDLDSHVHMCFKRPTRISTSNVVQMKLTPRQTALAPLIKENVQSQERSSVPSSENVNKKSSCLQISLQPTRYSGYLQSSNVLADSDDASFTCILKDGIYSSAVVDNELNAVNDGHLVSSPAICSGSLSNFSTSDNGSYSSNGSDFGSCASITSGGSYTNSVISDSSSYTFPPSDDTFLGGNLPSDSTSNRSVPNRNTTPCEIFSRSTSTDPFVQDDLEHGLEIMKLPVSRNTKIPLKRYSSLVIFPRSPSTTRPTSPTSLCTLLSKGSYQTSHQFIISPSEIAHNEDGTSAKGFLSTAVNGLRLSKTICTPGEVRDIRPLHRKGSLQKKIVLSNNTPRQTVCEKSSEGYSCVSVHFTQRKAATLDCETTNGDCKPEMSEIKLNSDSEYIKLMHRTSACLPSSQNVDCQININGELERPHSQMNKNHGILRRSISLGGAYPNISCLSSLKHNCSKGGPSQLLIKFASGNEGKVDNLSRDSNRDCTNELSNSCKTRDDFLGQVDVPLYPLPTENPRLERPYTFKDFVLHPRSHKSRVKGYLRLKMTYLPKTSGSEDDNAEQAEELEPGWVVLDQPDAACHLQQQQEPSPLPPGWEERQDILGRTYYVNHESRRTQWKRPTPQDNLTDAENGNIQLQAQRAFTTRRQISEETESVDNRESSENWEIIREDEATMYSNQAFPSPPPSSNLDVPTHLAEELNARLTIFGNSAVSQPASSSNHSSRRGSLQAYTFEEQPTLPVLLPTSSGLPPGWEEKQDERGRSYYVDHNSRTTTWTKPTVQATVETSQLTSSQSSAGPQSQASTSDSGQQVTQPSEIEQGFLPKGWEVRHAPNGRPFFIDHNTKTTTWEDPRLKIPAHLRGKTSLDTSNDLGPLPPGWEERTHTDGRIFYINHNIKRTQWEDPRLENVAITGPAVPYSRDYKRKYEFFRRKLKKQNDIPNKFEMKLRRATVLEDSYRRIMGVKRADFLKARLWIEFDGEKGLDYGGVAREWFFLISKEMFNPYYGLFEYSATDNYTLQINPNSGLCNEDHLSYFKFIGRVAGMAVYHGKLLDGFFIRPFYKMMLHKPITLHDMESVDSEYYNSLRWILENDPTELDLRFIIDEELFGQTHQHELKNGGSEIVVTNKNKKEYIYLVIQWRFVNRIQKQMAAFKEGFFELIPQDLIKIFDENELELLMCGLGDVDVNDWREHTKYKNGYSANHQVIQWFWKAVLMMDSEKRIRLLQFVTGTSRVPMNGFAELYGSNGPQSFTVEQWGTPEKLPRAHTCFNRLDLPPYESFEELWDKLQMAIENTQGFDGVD

[2] = system: TH-positive (dopaminergic) neurons; test: Primary ventral mesencephalic cultures transduced with A53T α-syn; type: cell-based, rat; settings: A53T α-syn adenovirus, 0.1 μM
Method: Experiments aimed at monitoring dopaminergic cell viability in primary mesencephalic cultures were performed as described previously (7-9). Briefly, cells obtained from the midbrains of E17 rat embryos were plated at a density of 2.18×10^3 cells per mm^2 on a 48-well plate. Four days after plating, the cells were treated with cytosine arabinofuranoside (20 μM) to restrict the growth of glial cells. Three days later (7 days in vitro), the cells were transduced with an adenovirus encoding A53T α-syn, generated using the Invitrogen ViraPower Adenoviral Expression System (38), at a multiplicity of infection (MOI) of 15 in the absence or presence of ABI1 (0.1 μM). After a 72-h transduction period, the media was replaced with fresh media with or without ABI1 for an additional 24 h. […] MAP2- and TH-immunoreactive neurons were counted by an investigator blinded to the identity of the treatment conditions in at least ten randomly chosen observation fields (encompassing ˜800-1600 MAP2^+ neurons) per treatment using a Nikon TE2000-U inverted fluorescence microscope with a 20× objective. Relative dopaminergic cell viability was calculated as the percentage of MAP2-positive neurons that were also TH-positive and normalized by the value determined for control cells (set to 100%). […]

[3] = system: nitrosative stress; test: Nitrosative stress (protein nitration, 3-NT antibody) in yeast synucleinopathy model; type: cell-based
[4] = molecular target: Rsp5p (Saccharomyces cerevisiae, UniProt P39940); settings: pers. comm.; cited from earlier work
[5] = system: α-syn foci; test: α-syn-GFP localization / foci microscopy in yeast; type: cell-based; settings: α-syn-expressing yeast
Method: Logarithmic growing raffinose cultures were induced with galactose for five hours in the presence or absence of the indication concentration of ABI. Cells were centrifuged, media discarded, and then fixed with 4% paraformaldehyde in 1×PBS for 1 hr. The fixed culture was centrifuged, and the pellet resuspended in 0.4% paraformaldehyde in 1×PBS and kept at 4° C. Single plain images were taken at 100× magnification with a Nikon Eclipse Ti microscope.

Chain of Rsp5p (P39940 whole entry): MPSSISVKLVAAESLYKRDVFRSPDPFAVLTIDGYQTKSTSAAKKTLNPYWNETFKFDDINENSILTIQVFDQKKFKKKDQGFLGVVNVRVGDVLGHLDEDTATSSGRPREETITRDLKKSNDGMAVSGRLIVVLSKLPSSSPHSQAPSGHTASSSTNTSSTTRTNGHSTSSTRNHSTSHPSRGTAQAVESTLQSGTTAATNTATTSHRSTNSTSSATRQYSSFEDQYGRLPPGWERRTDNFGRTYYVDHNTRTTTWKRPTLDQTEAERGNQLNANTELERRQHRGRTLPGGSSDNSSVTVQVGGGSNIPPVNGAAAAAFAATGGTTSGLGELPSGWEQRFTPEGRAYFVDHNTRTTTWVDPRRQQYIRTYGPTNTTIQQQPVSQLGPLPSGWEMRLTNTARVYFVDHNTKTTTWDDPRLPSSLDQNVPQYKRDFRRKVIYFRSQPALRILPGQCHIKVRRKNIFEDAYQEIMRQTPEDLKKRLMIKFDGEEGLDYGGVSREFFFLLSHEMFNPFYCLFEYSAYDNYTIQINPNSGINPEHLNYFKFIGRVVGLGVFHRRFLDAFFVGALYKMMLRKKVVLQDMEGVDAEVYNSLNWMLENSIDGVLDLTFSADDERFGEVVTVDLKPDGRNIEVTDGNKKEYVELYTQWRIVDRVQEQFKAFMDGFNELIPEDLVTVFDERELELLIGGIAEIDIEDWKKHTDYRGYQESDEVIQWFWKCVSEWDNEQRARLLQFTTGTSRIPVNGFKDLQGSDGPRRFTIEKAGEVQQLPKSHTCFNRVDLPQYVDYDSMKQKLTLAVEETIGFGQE

Cc1cccc(-n2cnc3cc(C(=O)NCc4ccccc4Cl)ccc32)c1 [ABI, N-(2-chlorobenzyl)-1-(m-tolyl)-1H-benzo[d]imidazole-5-carboxamide]
ubiquitination of recombinant Nedd4 in vitro [1]: did not enhance ubiquitination
retraction of neuronal processes / neurite length [2]: markedly reduced the retraction of neuronal processes; also recorded: reversed
survival of TH-positive neurons (% of MAP2-positive neurons) [2]: largely restored the survival; also recorded: reversed
nitrosative stress [3]: prevented the generation of highly localized nitrosative stress
ubiquitination of recombinant Rsp5p in vitro [4]: did not enhance ubiquitination
accumulation of cytoplasmic α-syn foci / inclusions [5]: prevented the accumulation of cytoplasmic α-syn foci
